Test results reported in ChEMBL document CHEMBL2203089, “Synthesis of enantiomerically pure perhydro-1,4-diazepine-2,5-dione and 1,4-piperazine-2,5-dione derivatives exhibiting potent activity as apoptosis inhibitors” (Bioorg Med Chem Lett, 2012).
Activity calls are given as the source filed them. No cut-off for these calls is given here.

Experiments:
[1] = Inhibition of Apaf-1-caspase 9-cytochrome c (horse) complex assessed as inhibition of release of afc from […] preincubated for 60 mins before substrate addition by fluorescence assay
[2] = biological target: Apoptotic protease-activating factor 1/Caspase-3/Caspase-9/Cytochrome c (Homo sapiens, UniProt O14727+P42574+P55211+P99999); test: Inhibition of Apaf-1-caspase 9-cytochrome c-caspase 3 complex in human HEK293 cytosolic extract using afc-DEVD as substrate preincubated for 30 mins before substrate addition measured after 30 mins by fluorescence assay
[3] = Inhibition of beta-lactamase

Sequence of Apoptotic protease-activating factor 1/Caspase-3/Caspase-9/Cytochrome c (O14727 whole entry): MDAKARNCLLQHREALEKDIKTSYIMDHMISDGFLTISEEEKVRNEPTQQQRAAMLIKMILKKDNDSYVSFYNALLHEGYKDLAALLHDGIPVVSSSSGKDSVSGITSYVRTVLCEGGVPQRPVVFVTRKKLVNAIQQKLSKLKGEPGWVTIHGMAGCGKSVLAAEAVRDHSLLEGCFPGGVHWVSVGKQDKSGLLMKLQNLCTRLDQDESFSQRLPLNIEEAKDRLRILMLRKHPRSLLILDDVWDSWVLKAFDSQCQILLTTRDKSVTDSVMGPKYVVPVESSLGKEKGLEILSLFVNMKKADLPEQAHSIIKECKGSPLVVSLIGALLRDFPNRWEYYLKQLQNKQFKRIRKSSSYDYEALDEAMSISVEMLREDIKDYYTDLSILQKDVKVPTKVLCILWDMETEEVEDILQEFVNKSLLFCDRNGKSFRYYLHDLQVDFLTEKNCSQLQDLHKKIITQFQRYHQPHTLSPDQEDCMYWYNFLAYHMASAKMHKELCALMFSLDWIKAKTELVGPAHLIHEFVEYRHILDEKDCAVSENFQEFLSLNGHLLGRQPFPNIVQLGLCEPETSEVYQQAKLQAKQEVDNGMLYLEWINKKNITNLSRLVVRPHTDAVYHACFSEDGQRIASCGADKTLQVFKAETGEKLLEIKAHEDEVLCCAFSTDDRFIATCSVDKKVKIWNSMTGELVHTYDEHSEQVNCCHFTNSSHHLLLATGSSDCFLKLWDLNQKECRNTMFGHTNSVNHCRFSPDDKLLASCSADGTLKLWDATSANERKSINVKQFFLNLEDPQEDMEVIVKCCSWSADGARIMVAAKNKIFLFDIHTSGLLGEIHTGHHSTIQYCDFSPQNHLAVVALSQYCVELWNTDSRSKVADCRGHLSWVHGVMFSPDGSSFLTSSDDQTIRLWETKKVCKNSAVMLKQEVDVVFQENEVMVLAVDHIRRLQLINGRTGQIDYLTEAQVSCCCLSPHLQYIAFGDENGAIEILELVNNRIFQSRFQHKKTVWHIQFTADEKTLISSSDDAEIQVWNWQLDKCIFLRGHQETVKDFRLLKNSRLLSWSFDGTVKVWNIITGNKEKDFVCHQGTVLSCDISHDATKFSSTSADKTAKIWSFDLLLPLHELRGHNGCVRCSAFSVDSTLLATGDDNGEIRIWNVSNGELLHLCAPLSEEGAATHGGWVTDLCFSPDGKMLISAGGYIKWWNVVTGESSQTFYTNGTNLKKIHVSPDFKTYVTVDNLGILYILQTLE
Sequence of Apoptotic protease-activating factor 1/Caspase-3/Caspase-9/Cytochrome c (P42574 29-175 limits assumed): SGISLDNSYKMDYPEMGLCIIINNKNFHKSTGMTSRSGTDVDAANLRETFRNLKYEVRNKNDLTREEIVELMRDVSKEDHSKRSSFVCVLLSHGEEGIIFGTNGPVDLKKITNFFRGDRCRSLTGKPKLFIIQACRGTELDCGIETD
Sequence of Apoptotic protease-activating factor 1/Caspase-3/Caspase-9/Cytochrome c (P42574 176-277 limits assumed): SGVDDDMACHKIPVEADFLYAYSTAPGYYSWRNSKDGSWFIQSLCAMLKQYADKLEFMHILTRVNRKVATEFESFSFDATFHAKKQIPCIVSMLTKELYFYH
Sequence of Apoptotic protease-activating factor 1/Caspase-3/Caspase-9/Cytochrome c (P55211 1-315 limits assumed): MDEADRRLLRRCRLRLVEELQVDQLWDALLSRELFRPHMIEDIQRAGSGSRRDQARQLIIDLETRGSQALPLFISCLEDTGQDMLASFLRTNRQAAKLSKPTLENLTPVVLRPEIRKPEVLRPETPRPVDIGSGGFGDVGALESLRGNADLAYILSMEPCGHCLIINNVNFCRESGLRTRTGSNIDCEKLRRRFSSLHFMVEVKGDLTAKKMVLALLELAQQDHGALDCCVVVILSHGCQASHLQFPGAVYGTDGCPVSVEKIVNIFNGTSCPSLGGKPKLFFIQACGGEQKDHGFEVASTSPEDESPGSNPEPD
Sequence of Apoptotic protease-activating factor 1/Caspase-3/Caspase-9/Cytochrome c (P55211 331-416 limits assumed): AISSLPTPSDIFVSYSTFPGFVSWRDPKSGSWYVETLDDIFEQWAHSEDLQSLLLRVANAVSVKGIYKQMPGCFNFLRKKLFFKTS
Sequence of Apoptotic protease-activating factor 1/Caspase-3/Caspase-9/Cytochrome c (P99999 2-105 limits assumed): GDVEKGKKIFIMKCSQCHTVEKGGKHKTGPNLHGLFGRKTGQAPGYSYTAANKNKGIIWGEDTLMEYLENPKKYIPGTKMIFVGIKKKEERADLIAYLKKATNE

| SMILES | EC50 [1] [µM] | EC50 [2] [µM] | inhibition [3] |
| --- | --- | --- | --- |
| NC(=O)CN(CCc1ccc(Cl)cc1Cl)C(=O)C1CC(=O)N(CCc2ccc(Cl)cc2Cl)CC(=O)N1CCC(c1ccccc1)c1ccccc1 (racemic) | 7.9 | 16.8 |  |
| NC(=O)CN(CCc1ccc(Cl)cc1Cl)C(=O)[C@H]1CC(=O)N(CCc2ccc(Cl)cc2Cl)CC(=O)N1CCC(c1ccccc1)c1ccccc1 | 5 | 14.4 | inactive |
| NC(=O)CN(CCc1ccc(Cl)cc1Cl)C(=O)C[C@@H]1C(=O)N(CCc2ccc(Cl)cc2Cl)CC(=O)N1CCC(c1ccccc1)c1ccccc1 | 10.6 | 29.9 | inactive |
| NC(=O)CN(CCc1ccc(Cl)cc1Cl)C(=O)CC1C(=O)N(CCc2ccc(Cl)cc2Cl)CC(=O)N1CCC(c1ccccc1)c1ccccc1 (racemic) | 6.2 | 17 |  |
| NC(=O)CN(CCc1ccc(Cl)cc1Cl)C(=O)C[C@H]1C(=O)N(CCc2ccc(Cl)cc2Cl)CC(=O)N1CCC(c1ccccc1)c1ccccc1 | 9.6 | 23.9 | inactive |
| NC(=O)CN(CCc1ccc(Cl)cc1Cl)C(=O)[C@@H]1CC(=O)N(CCc2ccc(Cl)cc2Cl)CC(=O)N1CCC(c1ccccc1)c1ccccc1 | 3.2 | 14 | inactive |
